This passage reports EC50 results from US10183021B2, “sGC stimulators” (Ironwood Pharmaceuticals, Inc., priority 2013, dated 2019).

SMILES strings stand for the structures.

Sequence of soluble guanylate cyclase (sGC) (Q02153 whole entry): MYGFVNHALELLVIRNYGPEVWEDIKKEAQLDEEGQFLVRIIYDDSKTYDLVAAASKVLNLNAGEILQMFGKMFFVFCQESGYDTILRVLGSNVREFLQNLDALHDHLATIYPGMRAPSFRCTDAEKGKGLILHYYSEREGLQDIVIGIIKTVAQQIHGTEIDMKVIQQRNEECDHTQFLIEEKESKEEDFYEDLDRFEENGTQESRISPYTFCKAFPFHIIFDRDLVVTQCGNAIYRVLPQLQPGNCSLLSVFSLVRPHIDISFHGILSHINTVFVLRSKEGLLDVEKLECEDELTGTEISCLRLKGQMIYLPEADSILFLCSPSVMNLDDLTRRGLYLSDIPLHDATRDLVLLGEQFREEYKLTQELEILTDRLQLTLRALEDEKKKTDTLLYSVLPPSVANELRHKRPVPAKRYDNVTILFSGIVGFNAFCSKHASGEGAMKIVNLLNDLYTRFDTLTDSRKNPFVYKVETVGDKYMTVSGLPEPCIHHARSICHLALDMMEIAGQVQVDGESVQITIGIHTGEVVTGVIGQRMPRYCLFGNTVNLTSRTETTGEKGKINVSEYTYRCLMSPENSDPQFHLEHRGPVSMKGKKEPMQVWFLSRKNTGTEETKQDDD
Sequence of soluble guanylate cyclase (sGC) (Q02108 whole entry): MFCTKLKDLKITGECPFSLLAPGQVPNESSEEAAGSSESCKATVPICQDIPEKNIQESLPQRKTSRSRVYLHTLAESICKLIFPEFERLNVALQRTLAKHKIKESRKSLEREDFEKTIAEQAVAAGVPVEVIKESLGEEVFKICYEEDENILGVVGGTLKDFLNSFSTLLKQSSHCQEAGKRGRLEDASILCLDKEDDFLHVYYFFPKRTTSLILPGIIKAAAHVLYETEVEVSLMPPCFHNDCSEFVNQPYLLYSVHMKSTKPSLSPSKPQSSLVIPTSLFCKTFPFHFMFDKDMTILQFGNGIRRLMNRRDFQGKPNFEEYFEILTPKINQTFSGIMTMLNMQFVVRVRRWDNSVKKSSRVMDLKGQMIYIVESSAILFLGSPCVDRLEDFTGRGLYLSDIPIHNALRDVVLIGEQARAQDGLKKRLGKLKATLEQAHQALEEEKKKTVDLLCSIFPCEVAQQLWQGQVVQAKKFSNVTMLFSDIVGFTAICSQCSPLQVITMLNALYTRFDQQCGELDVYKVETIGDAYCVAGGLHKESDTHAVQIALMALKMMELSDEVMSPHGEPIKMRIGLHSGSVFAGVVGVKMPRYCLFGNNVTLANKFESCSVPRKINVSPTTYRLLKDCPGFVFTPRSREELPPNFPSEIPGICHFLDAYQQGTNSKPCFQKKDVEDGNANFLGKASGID

For the assay, the target named is soluble guanylate cyclase (sGC) (Homo sapiens (Human), UniProt Q02108+Q02153). Description: sGC-HEK-cGMP assay, new protocol with DETA-NONOate, LC/MS detection (Example 2C). The format is cell-based. To be noted: read-out: Absolute EC50 (uM) - binned. Here is the method:
Human embryonic kidney cells (HEK293), endogenously expressing soluble guanylate cyclase (sGC), were used to evaluate the activity of test compounds. Compounds stimulating the sGC enzyme should cause an increase in the intracellular concentration of cGMP. HEK 293 cells were seeded in Dulbecco's Modification of Eagle's Medium supplemented with fetal bovine serum (10% final) and penicillin (100 U/mL)/streptomycin (100 μg/mL) in a 50 μL volume at a density of 1.5×10^4 cells/well in a poly-D-lysine coated 384 well flat bottom plate. Cells were incubated overnight at 37° C. in a humidified chamber with 5% CO2. Medium was aspirated and cells were washed with 1× Hank's Buffered Saline Salt Solution (50 μL). Cells were then incubated for 15 minutes at 37° C. with 50 μL of a 0.5 mM 3-isobutyl-1-methylxanthine (IBMX) solution. Test article and Diethylenetriamine NONOate (DETA-NONOate) solutions (x μM concentration for test article solution and 10 μM concentration for DETA-NONOate solution; wherein x is one of the following concentrations);
were then added to the assay mixture and the resulting mixture incubated at 37° C. for 20 minutes. After the 20 minute incubation, the assay mixture was aspirated and 10% acetic acid containing 150 ng/mL+3-cGMP (internal standard for LCMS) (50 μL) was added to the cells. The plate was incubated at 4° C. for 30 minutes in the acetic acid solution to stop the reaction and lyse the cells. The plates were then centrifuged at 1,000 g for 3 minutes at 4° C. and the supernatant transferred to a clean reaction plate for LCMS analysis.
cGMP concentrations were determined from each sample using the LCMS conditions below (Table 5) and calculated standard curve.
Data were normalized to a high control using the following equation: 100*(Sample−Low Control)/(High Control−Low Control), where the low control is the average of 16 samples treated with 1% DMSO, and the high control is the average of 16 samples treated with 30 μM of 1-329 Data were fit using a 4-parameter fit (log(agonist) vs. response—variable slope) using GraphPad Prism Software v.5. n=2 for all compounds. […] Compounds failing to elicit a minimum response of 50% are reported as >30 μM.
With `CN(CC(C)(C)C(=O)O)c1nc(-c2cc(-c3ccon3)n(Cc3ccccc3F)n2)ncc1F` [Compound I-383], the concentration giving a half-maximal response (EC50) was < 0.1 µM. The figure for `CC(=O)NS(=O)(=O)CCNc1nc(-c2cc(-c3ccon3)n(Cc3ccccc3F)n2)ncc1F` [Compound I-385] is 0.101 to 1 µM; for `O=C(Nc1ccnc(-c2cc(-c3ccon3)n(Cc3ccccc3F)n2)n1)c1cc[nH]n1` [Compound I-386] it is > 1 µM.

As to `O=C(NC1CN(c2nc(-c3cc(-c4ccon4)n(Cc4ccccc4F)n3)ncc2F)C1)C(F)(F)F` [Compound I-387], the EC50 was < 0.1 µM.

Consider `CC(C)(C)OC(=O)NCCNc1nc(-c2cc(-c3ccon3)n(Cc3ccccc3F)n2)ncc1F` [Compound I-390], for which the EC50 is < 0.1 µM. In the case of `NCCNc1nc(-c2cc(-c3ccon3)n(Cc3ccccc3F)n2)ncc1F` [Compound I-391], the EC50 lay in the range of 0.101 to 1 µM. The figure for `O=S(=O)(NCCNc1nc(-c2cc(-c3ccon3)n(Cc3ccccc3F)n2)ncc1F)C(F)(F)F` [Compound I-392] is < 0.1 µM; for `CN(CC(C)(O)C(N)=O)c1nc(-c2cc(-c3ccon3)n(Cc3ccccc3F)n2)ncc1F` (stereo not shown) [Compound I-393] it is 0.101 to 1 µM.

As for `O=S(=O)(N1CC(Nc2nc(-c3cc(-c4ccon4)n(Cc4ccccc4F)n3)ncc2F)C1)C(F)(F)F` [Compound I-394], the EC50 is > 1 µM. The figure for `O[C@@H]1Cc2ccccc2[C@@H]1Nc1nc(-c2cc(-c3ccon3)n(Cc3ccccc3F)n2)ncc1F` [Compound I-395] is < 0.1 µM. The figure for `OC1(C(F)(F)F)CN(c2nc(-c3cc(-c4ccon4)n(Cc4ccccc4F)n3)ncc2F)C1` [Compound I-396] is < 0.1 µM; for `OC1(CNc2nc(-c3cc(-c4ccon4)n(Cc4ccccc4F)n3)ncc2F)CCOCC1` [Compound I-397] it is < 0.1 µM. The figure for `O=C(O)C(CC(F)F)Nc1nc(-c2cc(-c3ccon3)n(Cc3ccccc3F)n2)ncc1F` (stereo not shown) [Compound I-398] is > 1 µM; for `OCC(CC(F)F)Nc1nc(-c2cc(-c3ccon3)n(Cc3ccccc3F)n2)ncc1F` (stereo not shown) [Compound I-399] it is < 0.1 µM; for `COC(=O)[C@@H]1CCC(=O)N1c1nc(-c2cc(-c3ccon3)n(Cc3ccccc3F)n2)ncc1F` [Compound I-401] it is > 1 µM. In the case of `O=c1c(O)c(Nc2ccnc(-c3cc(-c4ccon4)n(Cc4ccccc4F)n3)n2)c1=O` [Compound I-402], the concentration giving a half-maximal response (EC50) was > 1 µM. For `O=C(O)C(Nc1nc(-c2cc(-c3ccon3)n(Cc3ccccc3F)n2)ncc1F)C(F)(F)F` (stereo not shown) [Compound I-403] the value was 0.101 to 1 µM. The figure for `OCC(Nc1nc(-c2cc(-c3ccon3)n(Cc3ccccc3F)n2)ncc1F)C(F)(F)F` (stereo not shown) [Compound I-404] is 0.101 to 1 µM; for `CC1(C(=O)O)CCCN(c2nc(-c3cc(-c4ccon4)n(Cc4ccccc4F)n3)ncc2F)C1` (stereo not shown) [Compound I-406] it is < 0.1 µM.

For the compound `OCCNc1nc(-c2cc(-c3ccon3)n(Cc3ccccc3F)n2)ncc1F` [Compound I-407], the EC50 was < 0.1 µM. On to `OCCCNc1nc(-c2cc(-c3ccon3)n(Cc3ccccc3F)n2)ncc1F` [Compound I-408], for which the EC50 is < 0.1 µM. The figure for `CCN(CC1(C(=O)O)CC1)c1nc(-c2cc(-c3ccon3)n(Cc3ccccc3F)n2)ncc1F` [Compound I-409] is < 0.1 µM; for `Cc1cc(-c2ncc(F)c(=O)[nH]2)nn1Cc1ccccc1F` [Compound I-410] it is > 1 µM; for `Cc1cc(-c2ncc(F)c(N(C)CC3(C(=O)O)CC3)n2)nn1Cc1ccccc1F` [Compound I-411] it is 0.101 to 1 µM. For `Cc1cc(-c2ncc(F)c(N3CCC[C@H](C)[C@@H]3C(=O)O)n2)nn1Cc1ccccc1F` [Compound I-412] the value was > 1 µM; for `Cc1cc(-c2ncc(F)c(NC(CO)CO)n2)nn1Cc1ccccc1F` [Compound I-413], > 1 µM.

In the case of `Cc1cc(-c2ncc(F)c(NCC(O)(C(F)(F)F)C(F)(F)F)n2)nn1Cc1ccccc1F` [Compound I-414], the EC50 is > 1 µM.

With `O=C(Nc1nc(-c2cc(-c3ccon3)n(Cc3ccccc3F)n2)ncc1F)C1(C(F)(F)F)CC1` [Compound I-415], the EC50 is > 1 µM.

Regarding `OCC(CO)Nc1cnnc(-c2cc(-c3ccon3)n(Cc3ccccc3F)n2)n1` [Compound I-416], the concentration for a half-maximal effect (EC50) was > 1 µM. The figure for `NC(=O)CNc1nc(-c2cc(-c3ccon3)n(Cc3ccccc3F)n2)ncc1F` [Compound I-417] is 0.101 to 1 µM; for `O=C(O)CC(Nc1nc(-c2cc(-c3ccon3)n(Cc3ccccc3F)n2)ncc1F)C(F)(F)F` (stereo not shown) [Compound I-418] it is 0.101 to 1 µM. For `NC(=O)CC(Nc1nc(-c2cc(-c3ccon3)n(Cc3ccccc3F)n2)ncc1F)C(F)(F)F` (stereo not shown) [Compound I-419] the value was > 1 µM; for `CCOC(=O)C1(C)C(=O)Nc2nc(-c3cc(-c4ccon4)n(Cc4ccccc4F)n3)nc(N)c21` (stereo not shown) [Compound I-420], < 0.1 µM.

Take `CC1(C(N)=O)C(=O)Nc2nc(-c3cc(-c4ccon4)n(Cc4ccccc4F)n3)nc(N)c21` (stereo not shown) [Compound I-421]: the EC50 lay within 0.101 to 1 µM. On to `CC1(C(=O)NC2CC2)C(=O)Nc2nc(-c3cc(-c4ccon4)n(Cc4ccccc4F)n3)nc(N)c21` (stereo not shown) [Compound I-422], for which the EC50 was 0.101 to 1 µM. The figure for `O=S(=O)(C1CCN(c2nc(-c3cc(-c4ccon4)n(Cc4ccccc4F)n3)ncc2F)CC1)N1CCOCC1` [Compound I-423] is < 0.1 µM. For `O=C(O)[C@@H]1CN(c2nc(-c3cc(-c4ccon4)n(Cc4ccccc4F)n3)ncc2F)C[C@H]1C(F)(F)F` [Compound I-424] the value was < 0.1 µM; for `O=C(NS(=O)(=O)C1CCN(c2nc(-c3cc(-c4ccon4)n(Cc4ccccc4F)n3)ncc2F)CC1)C1CC1` [Compound I-425], < 0.1 µM; for `CC(=O)NS(=O)(=O)C1CCN(c2nc(-c3cc(-c4ccon4)n(Cc4ccccc4F)n3)ncc2F)CC1` [Compound I-426], < 0.1 µM. For `NS(=O)(=O)C1CCN(c2nc(-c3cc(-c4ccon4)n(Cc4ccccc4F)n3)ncc2F)C1` (stereo not shown) [Compound I-427], the concentration for a half-maximal effect (EC50) is < 0.1 µM.

On to `OCCN(CCO)c1nc(-c2cc(-c3ccon3)n(Cc3ccccc3F)n2)ncc1F` [Compound I-428], for which the EC50 is < 0.1 µM. For `O=C(NS(=O)(=O)C1CCN(c2nc(-c3cc(-c4ccon4)n(Cc4ccccc4F)n3)ncc2F)C1)C1CC1` (stereo not shown) [Compound I-429] the value was < 0.1 µM; for `OC[C@@H]1[C@H](O)CCN1c1nc(-c2cc(-c3ccon3)n(Cc3ccccc3F)n2)ncc1F` [Compound I-430], < 0.1 µM.

For the compound `CC(O)CN(CC(C)O)c1nc(-c2cc(-c3ccon3)n(Cc3ccccc3F)n2)ncc1F` (stereo not shown) [Compound I-431], the EC50 was < 0.1 µM. The figure for `O=S(=O)(CCNc1nc(-c2cc(-c3ccon3)n(Cc3ccccc3F)n2)ncc1F)NO` [Compound I-432] is < 0.1 µM. For `O=C1C=C(O)CN(c2nc(-c3cc(-c4ccon4)n(Cc4ccccc4F)n3)ncc2F)C1` [Compound I-433] the value was > 1 µM; for `OCC1(O)CCN(c2nc(-c3cc(-c4ccon4)n(Cc4ccccc4F)n3)ncc2F)CC1` [Compound I-434], < 0.1 µM; for `OC[C@@H]1C[C@@H](O)CN1c1nc(-c2cc(-c3ccon3)n(Cc3ccccc3F)n2)ncc1F` [Compound I-435], < 0.1 µM. For `O=S(=O)(CCNc1nc(-c2cc(-c3ccon3)n(Cc3ccccc3F)n2)ncc1F)NC[C@H](O)CO` [Compound I-437] the value was 0.101 to 1 µM.

What is called EC50 is the concentration giving half of the maximal effect.
